# From patent publication US20050131061A1, “Angiogenesis inhibitors” (Mercian Corporation, priority 2002, published 2005)
# What was measured:
# [1] = system: human umbilical cord vein endothelial cells; assay: Inhibition of proliferation of human umbilical cord vein endothelial cells (3H-thymidine incorporation); format: cell-based; conditions: bFGF 10 μg/l, 48 hours + 8 hours 3H-thymidine
# Method: That is, 0.1 ml of human umbilical cord vein endothelial cells (Cell Systems Corporation) adjusted to 2×10^3 cells/well in MCDB131 medium (Chlorella Industry Co., Ltd.) containing 10 μg/l basic fibroblast cell growth factor and 10% fetal calf serum is seeded on a collagen-coated 96-well microplate (Sumitomo Bakelite Co., Ltd.) and at the same time a suitable amount of sample is added. The resultant is cultivated in an atmosphere containing 5% CO2 at 37° C. for 48 hours. Further, 1 μCi/well ^3H-tymidine is added and cultivation is performed for 8 hours. Then, the cells are collected using a cell harvester and the radioactivity incorporated into cells is measured using a scintillation counter.
# When the sample contains an active substance for inhibiting the growth of angioendothelial cells, the incorporation of radioactivity into the cells is suppressed. Further, an effective concentration range of the sample is obtained from the change in radioactivity in the cells depending on the concentration of the sample.
# [2] = system: DLD-1 (prostate cancer); assay: Toxicity to cultivated human cancer cells, MTT growth inhibition; format: cell-based; conditions: DLD-1 cells, 72 hours
# Method: (§1) Note that the tests were performed as follows. Various kinds of human cancer cells (K562 (leukemia), H226 (lung cancer), DLD-1 (prostate cancer) and HT1080 (fibrosarcoma)) were suspended in RPMI1640 medium or DMEM medium containing 10% fetal calf serum and each adjusted to 5×10^3 cells/well, and 0.1 ml of this was seeded on a 96-well microplate. At the same time, a suitable amount of each of the substances F-1491 (substances F-1491A to F-1491H) was added and the resultant was cultivated at 37° C. for 72 hours in an atmosphere containing 5% CO2. Further, 10 μl of 0.5% MTT (3-[4,5-dimethylthiazol-2-yl]2,5-[…] tetrazolium bromide) was added and the resultant was cultivated for 4 hours. After the cultivation, 0.1 ml of 10% SDS-0.01N hydrochloric acid was added and absorbance at 570 nm was measured to determine 50% growth inhibition concentration.
# [3] = system: H226 (lung cancer); assay: as above; format: cell-based; conditions: 72 hours
# Method: as §1
# [4] = system: HT1080 (fibrosarcoma); assay: as above; format: cell-based; conditions: 72 hours
# Method: as §1
# [5] = system: K562 (leukemia); assay: as above; format: cell-based; conditions: 72 hours
# Method: as §1
# [6] = Solubility (physicochemical properties)
# Method: • (1) Form: white powder • (2) Molecular formula: C24H34O3 • (Measurement of C24H35O3 by high resolution FAB mass spectrometry Calculated m/z: 371.2586 (M+H)^+, Found m/z: 371.2580) • (3) Specific optical rotation: [α]D^26−194° (c 0.1, methanol) • (4) Melting point: 55 to 58° C. • (5) Infrared absorption spectrum: The results obtained by measurement by the KBr method are as shown in FIG. 1. […] The chemical shift, multiplicity and spin coupling constant of each signal are shown in Table 1. • (9) ^13C-NMR spectrum: Measurement was performed by dissolving the substance in heavy methanol and using tetramethylsilane as an internal standard. 2. Physicochemical Properties of the Substance F-1491B • (1) Form: white powder • (2) Molecular formula: C23H32O3 • (Measurement of C23H33O3 by high resolution FAB mass spectrometry Calculated m/z: 357.2430 (M+H)^+, Found m/z: 357.2463), • (3) Specific optical rotation: [α]D^26-222° (c 0.1, methanol) • (4) Melting point: 53 to 56° C. • (5) Infrared absorption spectrum: The results obtained by measurement by the KBr method are as shown in FIG. 2. […] The chemical shift, multiplicity, and spin coupling constant of each signal are shown in Table 1. • (9) ^13C-NMR spectrum: Measurement was performed by dissolving the substance in heavy methanol and using tetramethylsilane as an internal standard. 3. Physicochemical Properties of the Substance F-1491C • (1) Form: white powder • (2) Molecular formula: C24H35O3Cl • (Measurement of C24H35O3Cl by high resolution ESI mass spectrometry Calculated m/z: 429.2172 (M+Na)^+, Found m/z: 429.2204) • (3) Ultraviolet absorption spectrum (measured in methanol): […]
# [7] = in methanol, chloroform and dimethyl sulfoxide
SMILES,50% growth inhibition concentration [1] [mg/L],50% growth inhibition concentration [2] [mg/L],50% growth inhibition concentration [3] [mg/L],50% growth inhibition concentration [4] [mg/L],50% growth inhibition concentration [5] [mg/L],"Solubility [6, 7]",Solubility ([6]; in water)
CC=C(C)C1C(C=CC=C(C)C(=O)CC)C2CCC(C)(O)CC2C2OC21C (centres unmarked) [F-1491E],3.2,>100,>100,>100,68,–,–
CC=C(C)C1C(C=CC=C(C)C(=O)CC)C2CC3OC3(C)CC2C2OC21C (centres unmarked) [F-1491A],2.2,>100,>100,>100,39,Soluble,hardly soluble
CC=C(C)C1C(C=CC=C(C)C(C)=O)C2CC(O)C(C)(O)CC2C2OC21C (centres unmarked) [F-1491H],5.6,>100,>100,>100,61,–,–
CC=C(C)C1C(C=CC=C(C)C(C)=O)C2CC(OC)C(C)(O)CC2C2OC21C (centres unmarked) [F-1491G],7.7,>100,>100,>100,95,–,–
CC=C(C)C1C(C=CC=C(C)C(C)=O)C2CC(Cl)C(C)(O)CC2C2OC21C (centres unmarked) [F-1491D],4.6,>100,>100,>100,80,–,–
CC=C(C)C1C(C=CC=C(C)C(C)=O)C2CCC(C)(O)CC2C2OC21C (centres unmarked) [F-1491F],9.3,>100,>100,>100,72,–,–
CC=C(C)C1C(C=CC=C(C)C(C)=O)C2CC3OC3(C)CC2C2OC21C (centres unmarked) [F-1491B],3.4,>100,>100,>100,36,Soluble,hardly soluble
CC=C(C)C1C(C=CC=C(C)C(=O)CC)C2CC(Cl)C(C)(O)CC2C2OC21C (centres unmarked) [F-1491C],7.4,>100,>100,>100,52,–,–
